EC (2-fold) and IC50 data for 23 compounds are collected here from patent publication US20240140986A1, “SYNTHETIC URSOLIC ACID DERIVATIVES AND METHODS OF USE THEREOF” (REATA PHARMACEUTICALS, INC., priority 2021, published 2024).

The term pIC50 denotes −log10 of the IC50, conventionally taken in molar units.

pIC50: −log10 of the molar value.

For experiment [1], the system named is Nrf2 / ARE-dependent luciferase in AREc32 reporter cell line. Briefly: AREc32 luciferase reporter activation (Nrf2 induction). In kind it is cell-based, human. As to conditions: Homo sapiens, Arec32; Table 3; oleanolic acid derivative analogs; read-out: Avg ARE EC-2X. As for the experimental part:
Effect on Ludferase Reporter Activation. Nrf2 is a transcription factor that binds to the antioxidant response element (ARE) sequence in the promoter regions of its target genes. AREc32 reporter cell line (derived from human breast carcinoma MCF7 cells) was obtained was from CXR Bioscience Limited (Dundee, UK) and cultured in DMEM (low glucose) supplemented with 10% FBS, 1% penicillin/streptomycin, and 0.8 mg/ml Geneticin (G418). This cell line is stably transfected with a luciferase reporter gene under the transcriptional control of eight copies of the rat GSTA2 ARE sequence (5′-GTGACAAAGCA-3′) (Wang et al., 2006). Expression of Firefly luciferase from this reporter plasmid is controlled by binding of Nrf2 to these ARE sequences. Measurement of ARE-dependent luciferase activity allows quantitative assessment of Nrf2 induction. AREc32 cell line has previously been used in studies characterizing different Nrf2 activators (Dinkova-Kostova & Wang, 2011; Roubalová et al., 2016; Roubalová et al, 2017; Wu et al, 2012).
The effect of several compounds disclosed herein on luciferase reporter activation was assessed in the AREc32 reporter cell line (see Table 10 and Table 11). This cell line is derived from human breast carcinoma MCF-7 cells and is stably transfected with a luciferase reporter gene under the transcriptional control of eight copies of the antioxidant response element from the rat Gsta2 gene, an Nrf2 target gene (Frilling et al., 1990). AREc32 cells were plated in black 96-well plates in 200 μL media at 20,000 cells per well. Twenty-four hours after plating, cells were treated with vehicle (DMSO) or test compounds at concentrations ranging from 0.03 to 1000 nM for nineteen hours. Media was removed and 100 μL of 1:1 mixture of the One-Glo Luciferase assay reagent and culture medium was added to each well. After incubation for 5 min at room temperature, the luminescence signal was measured on a PHERAstar plate reader. The EC2X value was determined using Excel and GraphPad Prism software. The fold increase in luminescence signal for cells treated with each concentration of compound relative to cells treated with vehicle was determined and a dose-response curve was generated. The dose-response curve was fit using nonlinear regression analysis and used to extrapolate the EC2X value. The EC2X value is defined as the concentration of test compound required to increase the luminescence signal 2-fold above levels in vehicle-treated samples.
A general note: In a reporter assay the amount or activity of a reporter protein is the signal.

In experiment [2] the test system is IFNγ-induced NO production in RAW 264.7 cells. Briefly: Nitric Oxide Suppression Assay (IFNγ-induced NO, Griess nitrite readout). To be noted: Mus musculus, RAW264.7, Table 3; oleanolic acid derivative analogs; read-out: Avg NO IC50. It counts as cell-based, mouse. As for the experimental part: Tissue Culture: RAW 264.7, a mouse macrophage cell line, was obtained from American Type Culture Collection (Manassas VA) and maintained in the log phase of growth in Roswell Park Memorial Institute Medium 1640 (RPMI 1640) supplemented with 10% heat inactivated fetal bovine serum and 1% penicillin-streptomycin. Cells were cultured and maintained in a humidified incubator at 37° C. under 5% C02. Cells were sub-cultured every 2-4 days. All cell culture supplies were obtained from Life Technologies (Grand Island, NY) and VWR (Radnor, PA).
Nitric Oxide Suppression Assay. RAW 264.7 cells were plated 1 day in advance of experimental treatments at a concentration of 30,000 cells per well onto Falcon-96 well clear bottom plates (Corning, NY) in a total volume of 200 μL per well using RPMI 1640 supplemented with 0.5% fetal bovine serum and 1% penicillin-streptomycin. The next day, cells were pretreated with compounds serially diluted from 1000×stocks. All compounds were dissolved in dimethyl sulfoxide (DMSO) usually at 10 mM stock solutions. Compounds were subsequently diluted in DMSO and RPMI 1640. Each well received a final concentration of 0.1% DMSO. Cells were pretreated for 2 hours and incubation at 37° C., followed by treatment with 20 ng/mL of interferon gamma (R&D Systems, Minneapolis, MN) per well for 24 hours. The next day, a nitrite standard was serially diluted from 100 μM to 1.6 μM in RPMI 1640. Afterwards, 50 μL of cell culture supernatant was transferred from each well into a new Falcon-96 well clear bottom plate. Nitrite was measured as surrogate for nitric oxide using Promega's Griess Detection Kit #G2930 (Madison, WI) which involves the addition of 50 μL of the provided sulfanilamide solution to each well of the transferred cell culture supernatant and standards, followed by a 10-minute incubation at room temperature. Next, 50 μL of the provided N-1-napthylethylenediamine dihydrochloride (NED) solution was added to the sulfanilamide reaction and incubated for 10 minutes at room temperature in the dark. Afterwards, air bubbles were removed using ethanol vapor and absorbance was measured using a Spectramax M2e plate reader with a wavelength set to 525 nm. Viability was assessed using WST-1 cell proliferation reagent from Roche (Basel, Switzerland). After media was removed for the Nitric Oxide suppression assay, 15 μL of WST-1 reagent was added to each well of cells. Plates were briefly mixed on an orbital shaker and the cells were incubated at 37° C. for 30-90 minutes. Absorbance was measured using a Spectramax M2e plate reader with wavelengths set to 440 nm and 700 nm.
For the ability of compounds to suppress the increase in nitric oxide release caused by interferon gamma, the absolute amount of nitrite that was produced in each well was extrapolated from the nitrite standards using a linear regression fit. All values were then normalized to the DMSO-interferon gamma treated wells and plotted as percent nitric oxide. IC50 values were calculated using Excel and/or GraphPad Prism (San Diego, CA).

As to `CC1(C)CC[C@]2(c3nc(C4CC4)no3)CC[C@]3(C)[C@H](C(=O)C=C4[C@@]5(C)C=C(C#N)C(=O)C(C)(C)[C@@H]5CC[C@]43C)[C@@H]2C1` [CC2, reference compound], the EC (2-fold) in experiment [1] worked out at 0.0437 µM.
With `CCc1noc([C@]23CCC(C)(C)C[C@H]2[C@H]2C(=O)C=C4[C@@]5(C)C=C(C#N)C(=O)C(C)(C)[C@@H]5CC[C@@]4(C)[C@]2(C)CC3)n1` [CC4, reference compound], the pIC50 in experiment [2] was 8.28. Moreover, the EC (2-fold) in experiment [1] came out at 0.0214 µM.
In the same order, the values of `CN(C)Cc1noc([C@]23CCC(C)(C)C[C@H]2[C@H]2C(=O)C=C4[C@@]5(C)C=C(C#N)C(=O)C(C)(C)[C@@H]5CC[C@@]4(C)[C@]2(C)CC3)n1` [CC8, reference compound] are 8.48 and 0.00372 µM.
With `CC1(C)CC[C@]2(c3nc(CO)no3)CC[C@]3(C)[C@H](C(=O)C=C4[C@@]5(C)C=C(C#N)C(=O)C(C)(C)[C@@H]5CC[C@]43C)[C@@H]2C1` [CC10, reference compound], the pIC50 in experiment [2] was 8.68. In addition, the EC (2-fold) in experiment [1] stood at 0.00339 µM.
In the same order, the values of `CC1(C)CC[C@]2(CO)CC[C@]3(C)[C@H](C(=O)C=C4[C@@]5(C)C=C(C#N)C(=O)C(C)(C)[C@@H]5CC[C@]43C)[C@@H]2C1` [CC13, reference compound] are 9.30 and 0.00882 µM.
In the case of `CC1(C)CC[C@]2(CN3CCC3=O)CC[C@]3(C)[C@H](C(=O)C=C4[C@@]5(C)C=C(C#N)C(=O)C(C)(C)[C@@H]5CC[C@]43C)[C@@H]2C1` [CC14, reference compound], the pIC50 in experiment [2] is 8.96. The EC (2-fold) in experiment [1] was 0.00524 µM.
In the same order, the values of `CC1(C)CC[C@]2(CN3CCCC3=O)CC[C@]3(C)[C@H](C(=O)C=C4[C@@]5(C)C=C(C#N)C(=O)C(C)(C)[C@@H]5CC[C@]43C)[C@@H]2C1` [CC15, reference compound] are 8.96 and 0.00666 µM.
Consider `CC1(C)CC[C@]2(N)CC[C@]3(C)[C@H](C(=O)C=C4[C@@]5(C)C=C(C#N)C(=O)C(C)(C)[C@@H]5CC[C@]43C)[C@@H]2C1` [CC16, reference compound], for which the pIC50 in experiment [2] was 8.46. In addition, the EC (2-fold) in experiment [1] turned out to be 0.0277 µM.
Regarding `CC1(C)CC[C@]2(CNC(=O)C3CC3)CC[C@]3(C)[C@H](C(=O)C=C4[C@@]5(C)C=C(C#N)C(=O)C(C)(C)[C@@H]5CC[C@]43C)[C@@H]2C1` [CC19, reference compound], the pIC50 in experiment [2] was 9.30. Further, the EC (2-fold) in experiment [1] amounted to 0.00322 µM.
In the same order, the values of `CC1(C)CC[C@]2(CNC(=O)OC(C)(C)C)CC[C@]3(C)[C@H](C(=O)C=C4[C@@]5(C)C=C(C#N)C(=O)C(C)(C)[C@@H]5CC[C@]43C)[C@@H]2C1` [CC20, reference compound] are 8.30 and 0.0211 µM.
With `CC1(C)CC[C@]2(CN)CC[C@]3(C)[C@H](C(=O)C=C4[C@@]5(C)C=C(C#N)C(=O)C(C)(C)[C@@H]5CC[C@]43C)[C@@H]2C1` [CC21, reference compound], the pIC50 in experiment [2] was 8.49. The EC (2-fold) in experiment [1] is 0.0158 µM.
Regarding `CCC(=O)NC[C@]12CCC(C)(C)C[C@H]1[C@H]1C(=O)C=C3[C@@]4(C)C=C(C#N)C(=O)C(C)(C)[C@@H]4CC[C@@]3(C)[C@]1(C)CC2` [CC23, reference compound], the pIC50 in experiment [2] is 9.40. Moreover, the EC (2-fold) in experiment [1] was determined as 0.00237 µM.
Consider `[2H]C([2H])([2H])C(=O)NC[C@]12CCC(C)(C)C[C@H]1[C@H]1C(=O)C=C3[C@@]4(C)C=C(C#N)C(=O)C(C)(C)[C@@H]4CC[C@@]3(C)[C@]1(C)CC2` [CC24, reference compound], for which the pIC50 in experiment [2] is 9.30. Further, in experiment [1], the EC (2-fold) came out at 0.00296 µM.
In the same order, the values of `CNC(=O)NC[C@]12CCC(C)(C)C[C@H]1[C@H]1C(=O)C=C3[C@@]4(C)C=C(C#N)C(=O)C(C)(C)[C@@H]4CC[C@@]3(C)[C@]1(C)CC2` [CC26, reference compound] are 9.30 and 0.00275 µM.
In the same order, the values of `CC(=O)N(C)C[C@]12CCC(C)(C)C[C@H]1[C@H]1C(=O)C=C3[C@@]4(C)C=C(C#N)C(=O)C(C)(C)[C@@H]4CC[C@@]3(C)[C@]1(C)CC2` [CC35, reference compound] are 9.10 and 0.00681 µM.
Regarding `CNC(=O)N(C)C[C@]12CCC(C)(C)C[C@H]1[C@H]1C(=O)C=C3[C@@]4(C)C=C(C#N)C(=O)C(C)(C)[C@@H]4CC[C@@]3(C)[C@]1(C)CC2` [CC36, reference compound], in experiment [1], the EC (2-fold) stood at 0.00723 µM.
For `CC1(C)CC[C@]2(CNCCO)CC[C@]3(C)[C@H](C(=O)C=C4[C@@]5(C)C=C(C#N)C(=O)C(C)(C)[C@@H]5CC[C@]43C)[C@@H]2C1` [CC40, reference compound], the pIC50 in experiment [2] was 8.12. The EC (2-fold) in experiment [1] was 0.0218 µM.
In the same order, the values of `CC1(C)CC[C@]2(CN3CCOC3=O)CC[C@]3(C)[C@H](C(=O)C=C4[C@@]5(C)C=C(C#N)C(=O)C(C)(C)[C@@H]5CC[C@]43C)[C@@H]2C1` [CC41, reference compound] are 8.77 and 0.00512 µM.
In the same order, the values of `CC1(C)CC[C@]2(CN3CCOC3)CC[C@]3(C)[C@H](C(=O)C=C4[C@@]5(C)C=C(C#N)C(=O)C(C)(C)[C@@H]5CC[C@]43C)[C@@H]2C1` [CC42, reference compound] are 7.76 and 0.122 µM.
`CN1CCN(C[C@]23CCC(C)(C)C[C@H]2[C@H]2C(=O)C=C4[C@@]5(C)C=C(C#N)C(=O)C(C)(C)[C@@H]5CC[C@@]4(C)[C@]2(C)CC3)C1=O` [CC44, reference compound]: the pIC50 in experiment [2] was 8.92. Also, in experiment [1], the EC (2-fold) is 0.00607 µM.
For the compound `Cc1cn(C[C@]23CCC(C)(C)C[C@H]2[C@H]2C(=O)C=C4[C@@]5(C)C=C(C#N)C(=O)C(C)(C)[C@@H]5CC[C@@]4(C)[C@]2(C)CC3)nn1` [CC49, reference compound], the EC (2-fold) in experiment [1] was 0.0138 µM.
Same read-out and setting: then `CC1(C)CC[C@]2(CN3CCC3)CC[C@]3(C)[C@H](C(=O)C=C4[C@@]5(C)C=C(C#N)C(=O)C(C)(C)[C@@H]5CC[C@]43C)[C@@H]2C1` [CC55, reference compound], with 0.022 µM; and `CC1(C)CC[C@]2(N3CCCC3=O)CC[C@]3(C)[C@H](C(=O)C=C4[C@@]5(C)C=C(C#N)C(=O)C(C)(C)[C@@H]5CC[C@]43C)[C@@H]2C1` [CC58, reference compound], with 0.0379 µM.
